Test results taken from ChEMBL document CHEMBL3045927, “Synthesis of 4-methyl-1,2,3-thiadiazole derivatives via Ugi reaction and their biological activities” (2010).

Legend:
Assay type in all cases: functional
[1] = tested on: Tobacco mosaic virus; assay: In vitro antiviral activity against Tobacco mosaic virus (TMV) infected tobacco leaves at 500 ug/ml
[2] = tested on: Tobacco mosaic virus; assay: In vitro antiviral activity against Tobacco mosaic virus (TMV) infected tobacco leaves at 100 ug/ml
[3] = tested on: Phytophthora infestans; assay: Fungicidal activity against Phytophthora infestans at 50 ug/ml by growth inhibition method; set-up: scale not given: the % may be the effect or the level left
[4] = tested on: Thanatephorus cucumeris; assay: Fungicidal activity against Thanatephorus cucumeris at 50 ug/ml by growth inhibition method; set-up: scale not given: the % may be the effect or the level left
[5] = tested on: Rhizoctonia solani; assay: Fungicidal activity against Rhizoctonia solani at 50 ug/ml by growth inhibition method; set-up: scale not given: the % may be the effect or the level left
[6] = tested on: Alternaria solani; assay: Fungicidal activity against Alternaria solani at 50 ug/ml by growth inhibition method; set-up: scale not given: the % may be the effect or the level left
[7] = tested on: Fusarium graminearum; assay: Fungicidal activity against Fusarium graminearum at 50 ug/ml by growth inhibition method; set-up: scale not given: the % may be the effect or the level left
[8] = tested on: Cercospora beticola; assay: Fungicidal activity against Cercospora beticola at 50 ug/ml by growth inhibition method; set-up: scale not given: the % may be the effect or the level left
[9] = tested on: Colletotrichum lagenaria; assay: Fungicidal activity against Colletotrichum lagenaria at 50 ug/ml by growth inhibition method; set-up: scale not given: the % may be the effect or the level left
[10] = tested on: Mycosphaerella arachidis; assay: Fungicidal activity against Mycosphaerella arachidis at 50 ug/ml by growth inhibition method; set-up: scale not given: the % may be the effect or the level left
[11] = tested on: Pyricularia grisea; assay: Fungicidal activity against Magnaporthe grisea at 50 ug/ml by growth inhibition method; set-up: scale not given: the % may be the effect or the level left
[12] = tested on: Botryosphaeria berengeriana; assay: Fungicidal activity against Botryosphaeria berengeriana at 50 ug/ml by growth inhibition method; set-up: scale not given: the % may be the effect or the level left
[13] = tested on: Fusarium oxysporum; assay: Fungicidal activity against Fusarium oxysporum at 50 ug/ml by growth inhibition method; set-up: scale not given: the % may be the effect or the level left

Compound	inhibition at 500 µg/mL [1] [%]	inhibition at 100 µg/mL [2] [%]	Activity [3] [%]	Activity [4] [%]	Activity [5] [%]	Activity [6] [%]	Activity [7] [%]	Activity [8] [%]	Activity [9] [%]	Activity [10] [%]	Activity [11] [%]	Activity [12] [%]	Activity [13] [%]
Cc1ccc(N(C(=O)c2snnc2C)C(C(=O)NC2CCCCC2)c2ccc(Cl)cc2)cc1Cl (configuration not stated)	29	38	41	50	40	38	35	0	32	29	29	27	–
Cc1ccc(N(C(=O)c2snnc2C)C(C(=O)NC2CCCCC2)c2cccc(Cl)c2)cc1F (configuration not stated)	39	15	29	28	34	25	27	13	16	14	29	8	–
Cc1ccc(N(C(=O)c2snnc2C)C(C(=O)NC2CCCCC2)c2ccccc2C(F)(F)F)cc1Cl (configuration not stated)	38	18	41	33	60	38	12	0	53	29	43	46	–
Cc1ccc(N(C(=O)c2snnc2C)C(C(=O)NC2CCCCC2)c2ccccc2[N+](=O)[O-])cc1Cl (configuration not stated)	47	15	0	22	29	35	–	11	32	16	24	41	22
Cc1ccc(N(C(=O)c2snnc2C)C(C(=O)NC2CCCCC2)c2ccc(C(F)(F)F)cc2)cc1F (configuration not stated)	25	10	0	6	35	0	24	50	5	57	14	0	–
Cc1ccc(C(C(=O)NC2CCCCC2)N(C(=O)c2snnc2C)c2ccc(C)c(F)c2)cc1 (configuration not stated)	36	52	5	0	33	0	28	17	0	14	29	0	–
Cc1ccc(N(C(=O)c2snnc2C)C(C(=O)NC2CCCCC2)c2ccccc2Cl)cc1F (configuration not stated)	23	21	47	22	37	19	23	0	26	29	14	31	–
Cc1ccc(N(C(=O)c2snnc2C)C(C(=O)NC2CCCCC2)c2ccc(Cl)cc2)cc1F (configuration not stated)	30	28	24	22	43	38	12	0	37	0	43	23	–
Cc1ccc(N(C(=O)c2snnc2C)C(C(=O)NC2CCCCC2)c2ccccc2F)cc1F (configuration not stated)	23	22	41	33	49	38	0	0	42	29	43	31	–
Cc1ccc(N(C(=O)c2snnc2C)C(C(=O)NC2CCCCC2)c2cccc(F)c2)cc1F (configuration not stated)	29	9	5	0	42	0	38	17	5	21	0	0	–
Cc1ccc(N(C(=O)c2snnc2C)C(C(=O)NC2CCCCC2)c2ccccc2Cl)cc1Cl (configuration not stated)	20	19	26	12	67	26	–	27	5	48	40	13	0
Cc1cccc(C(C(=O)NC2CCCCC2)N(C(=O)c2snnc2C)c2ccc(C)c(F)c2)c1 (configuration not stated)	29	18	0	0	28	0	34	33	0	21	0	0	–
Cc1ccc(N(C(=O)c2snnc2C)C(C(=O)NC2CCCCC2)c2cccc([N+](=O)[O-])c2)cc1Cl (configuration not stated)	9	11	41	20	40	38	12	0	26	57	0	19	–
Cc1cccc(C(C(=O)NC2CCCCC2)N(C(=O)c2snnc2C)c2ccc(C)c(Cl)c2)c1 (configuration not stated)	19	11	35	24	63	37	–	27	14	17	10	35	18
Cc1ccc(N(C(=O)c2snnc2C)C(C(=O)NC2CCCCC2)c2ccc(F)cc2)cc1Cl (configuration not stated)	16	15	35	12	67	37	–	27	5	26	25	26	0
Cc1ccc(N(C(=O)c2snnc2C)C(C(=O)NC2CCCCC2)c2cccc(O)c2)cc1Cl (configuration not stated)	35	24	24	22	43	56	–	44	44	47	29	48	34
Cc1ccc(N(C(=O)c2snnc2C)C(C(=O)NC2CCCCC2)c2ccccc2F)cc1Cl (configuration not stated)	24	18	35	33	49	38	46	16	47	43	14	30	–
Cc1ccc(N(C(=O)c2snnc2C)C(C(=O)NC2CCCCC2)c2ccccc2C)cc1Cl (configuration not stated)	42	38	35	43	43	56	23	0	37	14	0	35	–
Cc1ccc(N(C(=O)c2snnc2C)C(C(=O)NC2CCCCC2)c2ccccc2[N+](=O)[O-])cc1F (configuration not stated)	29	17	5	0	37	0	41	67	5	21	0	0	–
Cc1ccc(N(C(=O)c2snnc2C)C(C(=O)NC2CCCCC2)c2ccc(F)cc2)cc1F (configuration not stated)	36	40	29	17	40	44	8	0	26	43	14	19	–
Cc1ccc(N(C(=O)c2snnc2C)C(C(=O)NC2CCCCC2)c2ccc(C(F)(F)F)cc2)cc1Cl (configuration not stated)	34	11	29	22	37	31	19	0	16	57	14	19	–
